What follows are compounds tested on estrogen receptor (assay: Estrogen receptor activation test: overall estrogen activity and ERβ versus ERα comparison). Details: Hela cells, sample 10^−9 M.
Type: cell-based
Procedure: (§1) Actually, estrogens show their biological activity by regulating estrogen responding genetic transcription.
(§2) Under condition of 37° C. and 5% CO2, Hela cells were cultured in phenol red-free high sugar DMEM culture medium containing 10% calf serum in incubator, the cells were spread in 60% density on 96-well plate when cell density was about 90%, each well was added with 150 ul of phenol red-free DMEM culture medium containing 10% serum, cultivation was performed overnight. To each well of the 96-well plate, 100 ul of serum-free DMEM culture medium and 0.4 μg plasmid (ptk-ERE-luc 2 μg, tk-Renila 1 μg, ERα or ERβ 1 μg) were used for transfection. After 6 h of transfection, each well was added with 150 ul of serum-free phenol red-free DMEM culture medium. Three wells were selected form each group, added with 10^−8M estradiol E2, and substance to be tested in different concentrations, 15 ul/well (sample 4-5 concentration gradient groups), continuously cultured under condition of 37° C., 5% CO2 for 24 h. After 24 h, each well was added with 80 μl of cell disruption solution, and the cells were subjected to freeze thawing once to be sufficiently disrupted. As for the cell lysis solution of each well, its activities to firefly luciferase and Renila luciferase were separately measured.

Structure (SMILES) | ERβ/ERα (both % of estradiol at 10^−8M)
O=C(O[C@@H]1Cc2c(O)cc(O)cc2O[C@@H]1c1ccc(O)c(O)c1)c1cc(O)c(O)c(O)c1 [(−)Epicatechin-3-O-gallate, (−)epicatechin-3-O-gallate] | 0.94

Same assay, conditions: estradiol as positive control; listed as (−) epicatechin-3-O-gallate

Structure (SMILES) | estrogen activity / estrogen receptor activation (in words)
O=C(O[C@@H]1Cc2c(O)cc(O)cc2O[C@@H]1c1ccc(O)c(O)c1)c1cc(O)c(O)c(O)c1 [(−)Epicatechin-3-O-gallate, (−)epicatechin-3-O-gallate] | show relevance to estrogen receptor activation

Same assay, conditions: estradiol as positive control; listed as (−)epicatechin-3-O-gallate

Structure (SMILES) | estrogen activity / estrogen receptor activation (in words)
O=C(O[C@@H]1Cc2c(O)cc(O)cc2O[C@@H]1c1ccc(O)c(O)c1)c1cc(O)c(O)c(O)c1 [(−)Epicatechin-3-O-gallate, (−)epicatechin-3-O-gallate] | potent activity of estrogen

Same assay, conditions: result in words

Structure (SMILES) | selectivity to receptor subtypes (ERα vs ERβ)
O=C(O[C@@H]1Cc2c(O)cc(O)cc2O[C@@H]1c1ccc(O)c(O)c1)c1cc(O)c(O)c(O)c1 [(−)Epicatechin-3-O-gallate, (−)epicatechin-3-O-gallate] | a higher selectivity to ERα than ERβ

What follows are compounds tested against T1, ERβ (Homo sapiens, UniProt Q92731) (assay: ERβ luciferase reporter gene transcription activation in transfected Hela cells). Details: Hela cells, 10^−5 M, 24 h.
T1 construct: expressed in transfected cells; host or cells: Hela cells (ER expression free)
Type: cell-based
Description: as §1
Formulation of sample solutions of catechin, (−)epicatechin-3-O-gallate, naringenin-4′-O-glucoside, phlorizin, emodin, chrysophanol (separately obtained from Example 1):
Catechin, (−)epicatechin-3-O-gallate, naringenin-4′-O-glucoside, phlorizin, emodin, chrysophanol in corresponding weights were separately weighed precisely, than added with DMSO for dissolution, the corresponding sample solution high dose groups (10 μM or 1 μM), were diluted in certain times to separately obtain low dose groups (1 μM to 0.001 μM).
as §2

T1 sequence (Q92731 whole entry): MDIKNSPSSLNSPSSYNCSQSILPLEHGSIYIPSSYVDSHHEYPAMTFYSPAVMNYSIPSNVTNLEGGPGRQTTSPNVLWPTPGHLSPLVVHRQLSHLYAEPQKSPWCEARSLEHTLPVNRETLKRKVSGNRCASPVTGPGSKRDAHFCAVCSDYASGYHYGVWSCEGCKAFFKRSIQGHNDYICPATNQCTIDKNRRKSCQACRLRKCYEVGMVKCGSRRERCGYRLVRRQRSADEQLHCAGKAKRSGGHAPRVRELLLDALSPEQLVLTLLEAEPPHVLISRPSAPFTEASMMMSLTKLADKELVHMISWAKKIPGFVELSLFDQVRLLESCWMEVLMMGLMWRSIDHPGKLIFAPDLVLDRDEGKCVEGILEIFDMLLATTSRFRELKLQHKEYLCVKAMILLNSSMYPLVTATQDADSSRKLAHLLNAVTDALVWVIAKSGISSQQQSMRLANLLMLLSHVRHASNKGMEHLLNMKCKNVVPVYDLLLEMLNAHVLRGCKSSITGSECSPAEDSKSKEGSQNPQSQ

Structure (SMILES) | ERβ (% of the control) mean ± S.D.
O=C(O[C@@H]1Cc2c(O)cc(O)cc2O[C@@H]1c1ccc(O)c(O)c1)c1cc(O)c(O)c(O)c1 [(−)Epicatechin-3-O-gallate, (−)epicatechin-3-O-gallate] | 137.80 ± 15.93 % of the control

Same assay, conditions: Hela cells, 10^−5 M, estradiol at 10^−8M

Structure (SMILES) | ERβ (% of estradiol)
O=C(O[C@@H]1Cc2c(O)cc(O)cc2O[C@@H]1c1ccc(O)c(O)c1)c1cc(O)c(O)c(O)c1 [(−)Epicatechin-3-O-gallate, (−)epicatechin-3-O-gallate] | (75.87) % of estradiol

Same assay, conditions: Hela cells, 10^−6 M, 24 h

Structure (SMILES) | ERβ (% of the control) mean ± S.D.
O=C(O[C@@H]1Cc2c(O)cc(O)cc2O[C@@H]1c1ccc(O)c(O)c1)c1cc(O)c(O)c(O)c1 [(−)Epicatechin-3-O-gallate, (−)epicatechin-3-O-gallate] | 148.13 ± 4.22 % of the control

Same assay, conditions: Hela cells, 10^−6 M, estradiol at 10^−8M

Structure (SMILES) | ERβ (% of estradiol)
O=C(O[C@@H]1Cc2c(O)cc(O)cc2O[C@@H]1c1ccc(O)c(O)c1)c1cc(O)c(O)c(O)c1 [(−)Epicatechin-3-O-gallate, (−)epicatechin-3-O-gallate] | (81.56) % of estradiol

Same assay, conditions: Hela cells, 10^−7 M, 24 h

Structure (SMILES) | ERβ (% of the control) mean ± S.D.
O=C(O[C@@H]1Cc2c(O)cc(O)cc2O[C@@H]1c1ccc(O)c(O)c1)c1cc(O)c(O)c(O)c1 [(−)Epicatechin-3-O-gallate, (−)epicatechin-3-O-gallate] | 159.55 ± 28.00 % of the control

Same assay, conditions: Hela cells, 10^−7 M, estradiol at 10^−8M

Structure (SMILES) | ERβ (% of estradiol)
O=C(O[C@@H]1Cc2c(O)cc(O)cc2O[C@@H]1c1ccc(O)c(O)c1)c1cc(O)c(O)c(O)c1 [(−)Epicatechin-3-O-gallate, (−)epicatechin-3-O-gallate] | (87.84) % of estradiol

Same assay, conditions: Hela cells, 10^−8 M, 24 h

Structure (SMILES) | ERβ (% of the control) mean ± S.D.
O=C(O[C@@H]1Cc2c(O)cc(O)cc2O[C@@H]1c1ccc(O)c(O)c1)c1cc(O)c(O)c(O)c1 [(−)Epicatechin-3-O-gallate, (−)epicatechin-3-O-gallate] | 131.16 ± 15.95 % of the control

Same assay, conditions: Hela cells, 10^−8 M, estradiol at 10^−8M

Structure (SMILES) | ERβ (% of estradiol)
O=C(O[C@@H]1Cc2c(O)cc(O)cc2O[C@@H]1c1ccc(O)c(O)c1)c1cc(O)c(O)c(O)c1 [(−)Epicatechin-3-O-gallate, (−)epicatechin-3-O-gallate] | (77.72) % of estradiol

Same assay, conditions: Hela cells, 10^−9 M, 24 h

Structure (SMILES) | ERβ (% of the control) mean ± S.D.
O=C(O[C@@H]1Cc2c(O)cc(O)cc2O[C@@H]1c1ccc(O)c(O)c1)c1cc(O)c(O)c(O)c1 [(−)Epicatechin-3-O-gallate, (−)epicatechin-3-O-gallate] | 97.75 ± 17.66 % of the control

Same assay, conditions: Hela cells, 10^−9 M, estradiol at 10^−8M

Structure (SMILES) | ERβ (% of estradiol)
O=C(O[C@@H]1Cc2c(O)cc(O)cc2O[C@@H]1c1ccc(O)c(O)c1)c1cc(O)c(O)c(O)c1 [(−)Epicatechin-3-O-gallate, (−)epicatechin-3-O-gallate] | (53.82) % of estradiol

Same assay, conditions: luciferase reporter gene

Structure (SMILES) | concentration at which the transcriptional activity of ERβ is agonized | concentration of the highest ERβ transcription activity
O=C(O[C@@H]1Cc2c(O)cc(O)cc2O[C@@H]1c1ccc(O)c(O)c1)c1cc(O)c(O)c(O)c1 [(−)Epicatechin-3-O-gallate, (−)epicatechin-3-O-gallate] | 10^−8-10^−5 M | 10^−7 M

— patent US20130288989A1, “NEW USE OF CHEMICAL INGREDIENTS IN CYNOMORIUM AS PHYTOESTROGEN” (TIANJIN UNIVERSITY OF TRADITIONAL CHINESE MEDICINE, priority 2010, published 2013)
